# Experimental data: PubChem BioAssay AID1963850 (Molecular Pharmacology Branch, DTP, NCI, 2024)
# System: 192522-019-R-J2-PDC complex tumor spheroid viability
# Test: Anticancer human tumor 192522-019-R-J2-PDC patient-derived colon adenocarcinoma cell line growth inhibition [POLQ]
# Settings: for IC50: curve of first compound; for viability, T/C: stronger effect = lower value
# Outline: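 Complex spheroid viability model combining PDC tumour cells with endothelial (HUVEC) and MSC stromal cells. Novobiocin, ART-558 or RP6685 were tested singly and in combination with standard and investigational anticancer drugs. Each was titrated in half-log steps from near clinical Cmax, or from 10 microM where Cmax was unknown.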
# [1] = second compound 0.0316 µM, first compound 0.0316 µM
# [2] = second compound 0.0316 µM, first compound 0.1 µM
# [3] = second compound 0.0316 µM, first compound 0.316 µM
# [4] = second compound 0.0316 µM, first compound 1 µM
# [5] = second compound 0.0316 µM, first compound 3.16 µM
# [6] = second compound 0.0316 µM, first compound 10 µM
# [7] = second compound 0.1 µM, first compound 0.0316 µM
# [8] = second compound 0.1 µM, first compound 0.1 µM
# [9] = second compound 0.1 µM, first compound 0.316 µM
# [10] = second compound 0.1 µM, first compound 1 µM
# [11] = second compound 0.1 µM, first compound 3.16 µM
# [12] = second compound 0.1 µM, first compound 10 µM
# [13] = second compound 0.316 µM, first compound 0.0316 µM
# [14] = second compound 0.316 µM, first compound 0.1 µM
# [15] = second compound 0.316 µM, first compound 0.316 µM
# [16] = second compound 0.316 µM, first compound 1 µM
# [17] = second compound 0.316 µM, first compound 3.16 µM
# [18] = second compound 0.316 µM, first compound 10 µM
# [19] = second compound 1 µM, first compound 0.0316 µM
# [20] = second compound 1 µM, first compound 0.1 µM
# [21] = second compound 1 µM, first compound 0.316 µM
# [22] = second compound 1 µM, first compound 1 µM
# [23] = second compound 1 µM, first compound 3.16 µM
# [24] = second compound 1 µM, first compound 10 µM
# [25] = second compound 3.16 µM, first compound 0.0316 µM
# [26] = second compound 3.16 µM, first compound 0.1 µM
# [27] = second compound 3.16 µM, first compound 0.316 µM
# [28] = second compound 3.16 µM, first compound 1 µM
# [29] = second compound 3.16 µM, first compound 3.16 µM
# [30] = second compound 3.16 µM, first compound 10 µM
# [31] = second compound 10 µM, first compound 0.0316 µM
# [32] = second compound 10 µM, first compound 0.1 µM
# [33] = second compound 10 µM, first compound 0.316 µM
# [34] = second compound 10 µM, first compound 1 µM
# [35] = second compound 10 µM, first compound 3.16 µM
# [36] = second compound 10 µM, first compound 10 µM
# 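Note: spheroids exposed to drugs for seven days before reading.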
# 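Throughout, for viability, T/C: 100% = DMSO vehicle control viability in luminescence.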
smiles,measurement,setting,value
C=CC(=O)N1CCN(c2nc(=O)n(-c3c(C)ccnc3C(C)C)c3nc(-c4c(O)cccc4F)c(F)cc23)C(C)C1 (stereo unspecified) + COC1C(OC(N)=O)C(O)C(Oc2ccc3c(O)c(NC(=O)c4ccc(O)c(CC=C(C)C)c4)c(=O)oc3c2C)OC1(C)C,IC50,second compound 0.0316 µM,> 10 µM
same,IC50,second compound 0.1 µM,> 10 µM
same,IC50,second compound 0.316 µM,> 10 µM
same,IC50,second compound 1 µM,> 10 µM
same,IC50,second compound 3.16 µM,> 10 µM
same,IC50,second compound 10 µM,> 10 µM
same,"viability, T/C",[1],107%
same,"viability, T/C",[2],96.2%
same,"viability, T/C",[3],103%
same,"viability, T/C",[4],98.7%
same,"viability, T/C",[5],107%
same,"viability, T/C",[6],97%
same,"viability, T/C",[7],101%
same,"viability, T/C",[8],91.1%
same,"viability, T/C",[9],93.3%
same,"viability, T/C",[10],96.5%
same,"viability, T/C",[11],101%
same,"viability, T/C",[12],105%
same,"viability, T/C",[13],103%
same,"viability, T/C",[14],101%
same,"viability, T/C",[15],101%
same,"viability, T/C",[16],99.7%
same,"viability, T/C",[17],105%
same,"viability, T/C",[18],114%
same,"viability, T/C",[19],97.7%
same,"viability, T/C",[20],105%
same,"viability, T/C",[21],112%
same,"viability, T/C",[22],110%
same,"viability, T/C",[23],109%
same,"viability, T/C",[24],121%
same,"viability, T/C",[25],103%
same,"viability, T/C",[26],105%
same,"viability, T/C",[27],109%
same,"viability, T/C",[28],106%
same,"viability, T/C",[29],117%
same,"viability, T/C",[30],102%
same,"viability, T/C",[31],104%
same,"viability, T/C",[32],92.5%
same,"viability, T/C",[33],105%
same,"viability, T/C",[34],96.8%
same,"viability, T/C",[35],118%
same,"viability, T/C",[36],107%
CC(C)n1c(=O)n(C)c2cnc3cc(F)c(-c4ccc(OCCCN5CCCCC5)nc4)cc3c21 + COC1C(OC(N)=O)C(O)C(Oc2ccc3c(O)c(NC(=O)c4ccc(O)c(CC=C(C)C)c4)c(=O)oc3c2C)OC1(C)C,IC50,second compound 0.0316 µM,> 10 µM
same,IC50,second compound 0.1 µM,> 10 µM
same,IC50,second compound 0.316 µM,> 10 µM
same,IC50,second compound 1 µM,> 10 µM
same,IC50,second compound 3.16 µM,> 10 µM
same,IC50,second compound 10 µM,> 10 µM
same,"viability, T/C",[1],107%
same,"viability, T/C",[2],93.2%
same,"viability, T/C",[3],115%
same,"viability, T/C",[4],112%
same,"viability, T/C",[5],112%
same,"viability, T/C",[6],93.9%
same,"viability, T/C",[7],97.5%
same,"viability, T/C",[8],100%
same,"viability, T/C",[9],108%
same,"viability, T/C",[10],108%
same,"viability, T/C",[11],104%
same,"viability, T/C",[12],95.2%
same,"viability, T/C",[13],97.8%
same,"viability, T/C",[14],95.5%
same,"viability, T/C",[15],117%
same,"viability, T/C",[16],115%
same,"viability, T/C",[17],120%
same,"viability, T/C",[18],106%
same,"viability, T/C",[19],96.8%
same,"viability, T/C",[20],102%
same,"viability, T/C",[21],104%
same,"viability, T/C",[22],110%
same,"viability, T/C",[23],94.9%
same,"viability, T/C",[24],104%
same,"viability, T/C",[25],98.1%
same,"viability, T/C",[26],107%
same,"viability, T/C",[27],114%
same,"viability, T/C",[28],108%
same,"viability, T/C",[29],122%
same,"viability, T/C",[30],102%
same,"viability, T/C",[31],118%
same,"viability, T/C",[32],112%
same,"viability, T/C",[33],114%
same,"viability, T/C",[34],120%
same,"viability, T/C",[35],110%
same,"viability, T/C",[36],107%
CC1COCCN1c1cc(-c2ccnn2C)c2ccnc(-c3ccn[nH]3)c2n1 (stereo unspecified) + COC1C(OC(N)=O)C(O)C(Oc2ccc3c(O)c(NC(=O)c4ccc(O)c(CC=C(C)C)c4)c(=O)oc3c2C)OC1(C)C,IC50,second compound 0.0316 µM,0.248 µM
same,IC50,second compound 0.1 µM,0.304 µM
same,IC50,second compound 0.316 µM,0.385 µM
same,IC50,second compound 1 µM,0.304 µM
same,IC50,second compound 3.16 µM,0.304 µM
same,IC50,second compound 10 µM,0.294 µM
same,"viability, T/C",[1],92.7%
same,"viability, T/C",[2],70.6%
same,"viability, T/C",[3],45.5%
same,"viability, T/C",[4],34.8%
same,"viability, T/C",[5],38.4%
same,"viability, T/C",[6],45%
same,"viability, T/C",[7],103%
same,"viability, T/C",[8],80.9%
same,"viability, T/C",[9],50.3%
same,"viability, T/C",[10],35.9%
same,"viability, T/C",[11],36.9%
same,"viability, T/C",[12],45.9%
same,"viability, T/C",[13],93.4%
same,"viability, T/C",[14],84.1%
same,"viability, T/C",[15],52.8%
same,"viability, T/C",[16],35.4%
same,"viability, T/C",[17],39.1%
same,"viability, T/C",[18],47.6%
same,"viability, T/C",[19],101%
same,"viability, T/C",[20],87.6%
same,"viability, T/C",[21],49.5%
same,"viability, T/C",[22],33.8%
same,"viability, T/C",[23],33.6%
same,"viability, T/C",[24],47.2%
same,"viability, T/C",[25],98.6%
same,"viability, T/C",[26],86.1%
same,"viability, T/C",[27],49.5%
same,"viability, T/C",[28],34.6%
same,"viability, T/C",[29],43.1%
same,"viability, T/C",[30],48.3%
same,"viability, T/C",[31],103%
same,"viability, T/C",[32],77.6%
same,"viability, T/C",[33],50.2%
same,"viability, T/C",[34],32.3%
same,"viability, T/C",[35],44.9%
same,"viability, T/C",[36],46.8%
